# Data taken from patent US20260097083A1, “METHOD FOR PRODUCING PANCREATIC ENDODERM CELLS” (Kyoto University, priority 2022, published 2026).
# What was measured:
# [1] = test system: pancreatic endoderm cells; assay: α-SMA immunostaining at the third passage of expansion culture; type: cell-based; details: Y-27632 50 μM vs non-administration, FIG. 6
# Experimental: FIG. 6 Images of pancreatic endoderm cells immunostained against α-SMA at the third passage of the pancreatic endoderm cells with or without the administration of Y-27632 (50 μM). The cells after the expansion culture were washed with PBS(−) twice, and were then fixed using 4% PFA at 4° C. for 20 minutes. The cells were blocked with a blocking solution (PBS(−) containing 5% donkey serum and 0.4% Triton X-100) at room temperature for 30 minutes. The cells were incubated in a primary antibody solution diluted with the blocking solution at 4° C. overnight. After the primary antibody solution was washed off, the cells were incubated at room temperature for 1 hour in a fluorescent secondary antibody solution diluted with the blocking solution. Fluorescently immunostained images were acquired using BZ-710 or BZ-800 (Keyence). A mechanism by which the expansion culture of pancreatic endoderm cells with Y-27632 was enabled was examined. It was shown that, at the third passage of the expansion culture, the number of α-SMA-positive cells increased in the Y-27632 non-administration group compared with the group to which Y-27632 at a concentration of 50 μM was administered (FIG. 6). That is to say, it was observed that fibrosis or epithelial-mesenchymal transition was suppressed by administering Y-27632 to the cells.
# [2] = test system: pancreatic endoderm cells derived from human iPS cells; assay: Expansion culture of pancreatic endoderm cells with Y-27632; type: cell-based
# Experimental: FIG. 4-A A schematic diagram illustrating expansion culture of pancreatic endoderm cells with Y-27632 (50 μM). NKX6.1-positive pancreatic endoderm cells were seeded on a plate and cultured in a culture medium containing Y-27632 (50 μM) for one week. After the elapse of one week, the cells were reseeded, and passage and expansion culture were repeated. PDX1^+/NKX6.1^+ pancreatic endoderm cells were produced from iPS cells (585A1 line) or ES cells (KhES-3 line) on a 6-well plate using the method by Toyoda et al. (Toyoda T, et al. Stem Cell Reports 2017). Briefly, the undifferentiated cells above were seeded at 1×10^6/well on a 6-well plate coated with iMatrix-511 silk. The cells were cultured in RPMI to which an S1 culture medium (1×B-27 Supplement, 100 U/ml penicillin/streptomycin, 100 ng/ml activin A, and CHIR99021 (Day 1: 3 μM, Days 2 and 3: 1 μM, and Day 4: 0 μM)) had been added for 4 days, in an S2 culture medium (improved MEM to which 0.5×B-27 Supplement, 100 U/ml penicillin/streptomycin, and 50 ng/ml KGF/FGF7 had been added) for 5 days, and in an S3 culture medium (improved MEM to which 0.5×B-27 Supplement, 100 U/ml penicillin/streptomycin, 50 ng/ml KGF/FGF7, 0.2 μM LDN-193189, 0.1 μM SANT-1, and 10 nM TTNPB had been added) for 2 days. The cells were detached from the 6-well plate using trypsin, and were reseeded on a 6-well plate coated with iMatrix-511 silk at 1.5×10^6/well using the S3 culture medium again. On the next day, the culture medium was changed to an S4 culture medium (improved MEM to which 0.5×B-27 Supplement, 100 U/ml penicillin/streptomycin, 100 ng/ml KGF/FGF7, 50 ng/ml EGF, 10 mM nicotinamide, and 50 μM Y-27632 had been added), and the cells were cultured for 4 days. (1) After the cells produced in clause 1 above were washed with PBS(−), 1 ml of 0.25% trypsin-EDTA was added thereto, and the cells were incubated at 37° C. and 5% CO2 for 5 minutes. (2) The adherent cells were detached through pipetting and were added to a 50-ml centrifuge tube. (3) 4 ml of DMEM (Dulbecco's Modified Eagle Medium)/10% FBS/PS (penicillin-streptomycin) was added to the centrifuge tube. (4) The resulting mixture was centrifuged at 400 G for 3 minutes, and the supernatant was removed. (5) The cells were suspended in improved MEM (containing 10 μM Y-27632, 0.5×B-27 Supplement, and 100 U/ml penicillin/streptomycin), and were counted. (6) When the cells were seeded on a 6-well plate, an amount of the suspension necessary to provide 1×10^6 cells/well was collected and was centrifuged at 400 G for 3 minutes (2×10^5 cells/well for a 24-well plate). (7) After the supernatant was removed, the cells were re-suspended in improved MEM (containing 100 ng/ml KGF, 50 ng/ml EGF, 10 mM nicotinamide, 50 μM Y-27632, 0.5×B-27 Supplement, and 100 U/ml penicillin/streptomycin), the suspension was adjusted to correspond to 2 ml/well, and then the cells were seeded. A 6-well plate to which the cells were to be seeded had been coated in advance by adding a solution formed by mixing 10 μl of iMatrix-511 silk and 1.5 ml of PBS(−) to each well 1 hour before seeding, and incubating the plate at 37° C. and 5% CO2 for 1 hour. (8) On the next day (Day 1), the cells were washed with improved MEM, and then the culture medium was changed to improved MEM (5 ml/well) containing 100 ng/ml KGF, 50 ng/ml EGF, 10 mM nicotinamide, 50 μM Y-27632, 0.5×B-27 Supplement, and 100 U/ml penicillin/streptomycin. (9) The cells were washed with improved MEM 3 days after that (on Day 4), and then the culture medium was changed to the same culture medium as that in the step (7) (5 ml/well). (10) The steps (1) to (7) above were conducted 3 days after that (on Day 7), and the next passage (expansion culture) was conducted. Expansion culture and passage culture were repeated by repeating the steps (8), (9), and (10) from the next day. One round of the passage (expansion culture) corresponded to 7 days (operations above). FIGS. 4-A show the outline of this procedure. […]
# [3] = 50 μM, flow cytometry, FIG. 4-E
# [4] = 50 μM, immunostaining after expansion culture, FIG. 4-D
smiles,measurement,setting,value
C[C@@H](N)[C@H]1CC[C@H](C(=O)Nc2ccncc2)CC1 [Y-27632],fibrosis or epithelial-mesenchymal transition (α-SMA-positive cells),[1],suppressed
same,proliferative capacity of the pancreatic endoderm cells (Ki67-positive ratio),"[2]; 50 μM, during expansion culture, FIG. 4-F",maintained
same,Ki67-positive ratio,[2]; [3],kept
same,ratio of the pancreatic endoderm cells,[2]; [3],kept
same,expression of Ki67,[2]; [4],maintained
same,expression of PDX1 and NKX6.1,[2]; [4],maintained
same,total number of cells increased by a factor of,"[2]; Y-27632 50 μM, 60 days, FIG. 4-B",≥ 1×10^5
same,number of PDX1+/NKX6.1+ pancreatic endoderm cells increased by a factor of,"[2]; Y-27632 50 μM, 60 days, FIG. 4-C",≥ 1×10^5
same,NKX6.1-positive ratio on repeated expansion culture,[2]; culture medium for expansion culture with Y-27632,tended to gradually decrease
